Measurements: PMC10688702, “The indole motif is essential for the antitrypanosomal activity of N^5-substituted paullones” (PLOS ONE, 2023)
Read-outs that look alike come from different tables or passages of the source.

What was measured:
[1] = system: murine macrophages J774.A1; experiment: Cytotoxicity assays on murine macrophages (WST-1); assay type: cell-based; conditions: error 1 SD; for Macrophage toxicity [% at 30 μM]: % cell death at 30 μM
Procedure: Cytotoxicity assays on murine macrophages. Murine macrophages from the cell line J774.A1 (ATCC® TIB-67TM) were cultivated under a humidified 5% CO2/95% air atmosphere at 37°C in Dulbecco’s modified Eagle’s medium (DMEM) supplemented with 10% (v/v) FBS, 10 U/mL penicillin and 10 μg/mL streptomycin. The experimental protocol for the determination of EC50 values was identical as described by Demoro et al. 2012 [71], with the following change: 200 μL/well of a cell suspension at 6 × 10^4 cells per mL was added in a 96-well culture plate and washed with 150 μL of DMEM. The cytotoxicity of the compounds was evaluated in triplicate using the WST-1 reagent (Roche). The control treatment included cells cultured in the presence of DMSO 1% (v/v). Absorbance at 450 nm (Ai 450 nm), corresponding to the formazan dye produced by metabolically active cells, was measured with an EL 800-microplate reader. The corrected absorbance values at 450 nm (Ai c 450 nm) were obtained by subtracting the corresponding absorbance value at 630 nm (Ai 630 nm) and the blank average (Ablank 450 nm): Aic450nm=Ai450nm-Ai630nm-Ablank450nm
Cell viability (%), with the number of viable cells proportional to the absorbance, was calculated as follows: cellviability%=Aic450nm/Anegativecontrolc450nm*100%
Ai c 450 nm refers to an absorbance obtained from cells treated with compound I at a specific concentration (i) and Anegative control c 450 nm refers to an absorbance obtained from cells in the DMSO-treated control (negative control). The errors were calculated using error propagations and are expressed as one SD, estimated as σ^n−1.

[2] = system: L. infantum amastigotes (intracellular, in J774.A1 macrophages); experiment: Viability assay for L. infantum amastigotes; assay type: cell-based; conditions: Leishmania infantum, J774.A1, 24 h, read-out: L. infantum amastigote viability [% at 20 μM]
Procedure: Viability assay for L. infantum amastigotes. L. infantum promastigotes from the reference strain MHOM/MA/67/ITMAP263, stably transfected with a vector encoding a red-shifted luciferase gene (RE9HLUC; Branchini et al.; Benítez et al.) were grown in fresh complete RPMI medium (RPMI basic medium containing 25 mM HEPES, 10% v/v iFBS, 100 U/mL penicillin, 100 μg/mL streptomycin and 15 μg/mL hygromycin B) at 28°C in sealed culture flasks. Metacyclic promastigotes were obtained by a negative selection procedure using peanut agglutinin and used to infect murine macrophages (cell line J774.A1) at a 1:10 ratio for macrophages (5×10^6 cells): parasites (5×10^7 cells). 200 μL of this suspension was added per well to a 96-well culture microplate, which was then incubated at 37°C for 24 h in a 5% CO2/95% air atmosphere incubator. […] The culture microplate was incubated in the CO2 incubator for additional 24 h. Next, the supernatant was removed and the microplate wells were washed with pre-warmed PBS (200 μL). […] All conditions were tested in triplicates and the percentage amastigote viability was calculated as described for infective T. b. brucei, with errors expressed as one SD, estimated as σ^n-1.
A macrophage cell density correction factor based on the incorporation of propidium iodide was calculated and applied to normalise amastigote viability related to host cell density in the well. For a detailed explanation of the protocol, see Benítez et al..

[3] = molecular target: trypanothione synthetase of L. infantum (LiTryS) (Leishmania infantum, UniProt A4I2Z3); experiment: TryS activity screening assay on recombinant LiTryS; assay type: biochemical; conditions: read-out: LiTryS activity [% at 30 μM]
Procedure: (§1) TryS from different trypanosomatids was produced in recombinant form with an N-terminal His-tag. The constructs pET-15b TbTryS and pET-28c(+)LiTryS were used to express TryS of T. b. brucei 427 (MITat1.4, GenBank accession protein id CAC87573.1), and L. infantum JPCM5 (GenBank accession protein id CAM69145.1). E. coli strain BL21 (DE3) served as the expression host. For TbTryS, the cells were cultured in a medium based in Terrific Broth and induction with isopropyl 1-thio-β-D-galactopyranoside (IPTG), while for LiTryS, the cells were cultured in ZYM-5052 auto-induction medium. For a detailed description of the expression, see Benítez et al.. The purification was performed by immobilised metal affinity chromatography in a HisTrap Fast Flow column (GE Healthcare) followed by size exclusion chromatography. […] The fractions containing recombinant TryS with ≥95% purity were pooled and concentrated to >10 mg protein/mL using a 10 kDa cut-off Amicon filter (Millipore, Billerica, CA). Glycerol was added at a final concentration of 40% (v/v). The samples were stored at -80°C. Enzyme purity and activity were assessed by SDS-PAGE (12%) under reducing conditions and by the end-point TryS assay (see TryS activity screening assay), respectively. Protein concentration was determined using the bicinchoninic acid assay with bovine serum albumin as standard. The protocols yielded 25–30 mg TbTryS or LiTryS per litre of culture medium and homogeneous specific activity.
(§2) For all TryS, ATP was used at 150 μM because of a high background signal at higher concentrations and Spd fixed at 2 mM, in agreement with the intracellular levels calculated from data reported in the literature for trypanosomatids. GSH was adjusted to 0.05 and 0.25 mM for TbTryS and LiTryS, respectively, to avoid substrate inhibition or to approach physiological concentrations. […] Microtiter plate wells were loaded with 5 μL of the test compound, DMSO (reaction control) or a TryS specific inhibitor (inhibition control) and 40 μL of MM solution. The reactions were then started by adding 5 μL of TryS (2 and 3*10^−5 μmol*min^-1*mL^-1 for LiTryS and TbTryS, respectively) and stopped after 15 min with 200 μL BIOMOL® GREEN reagent (Enzo Life Sciences). The compounds used as inhibition control were added at concentrations that inhibited 50% TryS activity: 30 μM and 150 nM MOL2008 for TbTryS and LiTryS, respectively. Blanks were prepared for each condition by adding 5 μL of screening reaction buffer instead of the enzyme. The TryS activity is calculated as follows: TrySactivity%=A650nmCi-A650nmCiB/A650nmE-A650nmEB*100%
(§3) A650 nm Ci is the mean absorbance at 650 nm for the reaction test with compound I (Ci), A650 nm CiB is the mean absorbance at 650 nm for the blank control with compound I (CiB), A650 nm E is the mean absorbance at 650 nm for the reaction control with DMSO (E) and A650 nm EB is the mean absorbance at 650 nm for the blank control with DMSO (EB). The errors were expressed as 2 standard deviations (SD), SD estimated as σ^n−1.

[4] = system: bloodstream form of T. b. brucei strain 427; experiment: Viability assay for T. b. brucei (whole parasite, bioluminescence); assay type: cell-based; conditions: 24 h; for T. b. brucei (BS) proliferation [% at 10 μM]: 10 μM compound; for EC50: read-out: T. b. brucei (BS) [EC50
Procedure: Viability assay for T. b. brucei. The bloodstream form of the monomorphic T. b. brucei strain 427, cell line 5141313, constitutively and stably expressing an ectopic copy of the Photinus pyralis red-shifted luciferase, was cultured in vitro with HMI-9 medium, supplemented with 10% fetal bovine serum, 10 U/mL penicillin (Gibco), 10 μg/mL streptomycin (Gibco), 0.2 μg/mL bleomycin (Jena Bioscience), 4 μg/mL G418 disulfate salt (Sigma-Aldrich) and 0.2 μg/mL puromycin (Invitrogen), inside a humidified incubator (Thermo Fisher Scientific) with controlled temperature (37°C) and CO2 (5%) in a 25 or 75 cm^2 vented-cap culture-flask. The anti-trypanosomal activity of compounds was evaluated in a 96-well culture plate containing 2.2 μL/well DMSO (negative control) or compounds dissolved in DMSO (1% final concentration), and 220 μL/well of a suspension of 1 × 10^5 parasites/mL. The plates were incubated at 37°C and 5% CO2 for 24 h. Next, each well was transferred to a 96-well black plate, and 20 μL of a solution containing d-luciferin (1.5 mg/mL in PBS glucose 1% w/v) and Triton X-100 (0.05% v/v) was added. Bioluminescence signal was measured in a LUMIstar OPTIMA Microplate luminometer using the following settings: 10 s shaking, 5 s/well acquisition, 0.2 s measurement delay, maximum gain, and 37°C. For the bioluminescence assay, parasite viability was calculated according to the following formula: parasiteviability%=BLcpd-BLblank/BLneg-BLblank*100%
BL refers to the mean of bioluminescence signal corresponding to the tested compound (cpd), the blank (blank, complete media containing 1% v/v DMSO), or the negative control (neg, parasites treated with 1% v/v DMSO). EC50 values were determined from concentration-response curves fitted to a four-parameter sigmoid equation using the GraphPad Prism software (version 6.0). All errors are expressed as one SD, estimated as σ^n-1. For a detailed explanation of the protocol, see Dibello et al..

[5] = system: trypanothione synthetase of T. b. brucei (TbTryS); experiment: TryS activity screening assay on recombinant TbTryS; assay type: biochemical; conditions: % activity at 30 μM compound, errors 2 SD
Procedure: as §1, §2, §3

trypanothione synthetase of L. infantum (LiTryS), sequence (A4I2Z3 entry or part of it): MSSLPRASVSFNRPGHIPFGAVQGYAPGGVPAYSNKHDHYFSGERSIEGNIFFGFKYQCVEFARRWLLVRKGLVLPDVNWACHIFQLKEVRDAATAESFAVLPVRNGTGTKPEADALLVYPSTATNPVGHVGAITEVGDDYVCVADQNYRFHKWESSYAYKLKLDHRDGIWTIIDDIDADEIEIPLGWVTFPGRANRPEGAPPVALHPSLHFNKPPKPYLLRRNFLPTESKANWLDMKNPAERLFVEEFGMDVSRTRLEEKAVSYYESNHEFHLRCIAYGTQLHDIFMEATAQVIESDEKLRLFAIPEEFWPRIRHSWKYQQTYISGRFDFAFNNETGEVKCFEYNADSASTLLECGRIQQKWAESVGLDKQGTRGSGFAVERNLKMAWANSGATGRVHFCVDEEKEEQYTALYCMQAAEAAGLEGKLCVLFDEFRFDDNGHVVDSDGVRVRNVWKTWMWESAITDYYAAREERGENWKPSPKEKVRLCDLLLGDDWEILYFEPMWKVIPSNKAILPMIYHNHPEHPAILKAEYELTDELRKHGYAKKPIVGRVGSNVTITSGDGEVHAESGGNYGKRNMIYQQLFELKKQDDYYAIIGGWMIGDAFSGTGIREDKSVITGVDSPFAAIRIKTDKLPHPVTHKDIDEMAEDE

| Compound | Macrophage toxicity [% at 30 μM] [1] | viability at 20 µM [2] | activity at 30 µM [3] | Macrophage toxicity [% at stated conc.] ([1]; % cell death at 60 μM) | T. b. brucei (BS) proliferation [% at 10 μM] [4] | EC50 ([4]; Trypanosoma brucei) | TbTryS activity [% at 30 μM] [5] | Macrophage toxicity [% at stated conc.] ([1]; % cell death at 100 μM) | EC50 [4] |
| --- | --- | --- | --- | --- | --- | --- | --- | --- | --- |
| CC(C)(C)OC(=O)N1CCN(CCNC(=O)CN2C(=O)Cc3ccccc3-c3ccccc32)CC1 [4b, tert-Butyl 4-{2-[2-(6-oxo-6,7-dihydro-5H-dibenzo[b,d]azepin-5-yl)acetamido]ethyl}piperazine-1-carboxylate] | 40% | 93.9 ± 6.6% | 103 ± 8.6% | – | – | – | – | – | – |
| CN(CCNC(=O)CN1C(=O)Cc2c([nH]c3ccc(I)cc23)-c2ccc(Cl)cc21)C(=O)OC(C)(C)C [10a, tert-Butyl {2-[2-(3-chloro-9-iodo-6-oxo-7,12-dihydrobenzo[2,3]azepino[4,5-b]indol-5(6H)-yl)acetamido]ethyl}(methyl)carbamate] | – | – | 38.3 ± 4.8% | 75.9 ± 9.9% | 0.0 ± 1.2% | 5.3 ± 1.3 µM | 90.2 ± 13.2% | – | – |
| CN(CCNC(=O)CN1C(=O)Cc2c([nH]c3ccc(Cl)cc23)-c2ccc(Cl)cc21)C(=O)OC(C)(C)C [10b, tert-Butyl {2-[2-(3,9-dichloro-6-oxo-7,12-dihydrobenzo[2,3]azepino[4,5-b]indol-5(6H)-yl)acetamido]ethyl}(methyl)carbamate] | – | – | 35.4% | 47.9 ± 4.8% | 0.0 ± 1.4% | 1.9 ± 1.2 µM | 94.2 ± 17.1% | – | – |
| CN(CCNC(=O)CN1C(=O)Cc2c([nH]c3ccc(C(F)(F)F)cc23)-c2ccc(Cl)cc21)C(=O)OC(C)(C)C [10c, tert-Butyl {2-[2-(3-chloro-6-oxo-9-trifluoromethyl-7,12-dihydrobenzo[2,3]azepino[4,5-b]indol-5(6H)-yl)acetamido]ethyl}(methyl)carbamate] | – | – | 43.2 ± 9.1% | – | 0.0 ± 1.0% | 11.6 ± 1.8 µM | 95.2 ± 13.2% | 94.9 ± 7.1% | ~12 µM |
| CC(C)(C)OC(=O)CN1C(=O)Cc2ccccc2-c2ccccc21 [compound 18, tert-Butyl 2-(6-oxo-6,7-dihydro-5H-dibenzo[b,d]azepin-5-yl)acetate] | 60% | – | 99.4 ± 3% | – | – | – | – | – | – |
